Data on 1 compound can be found in patent US12318452B2, “Degraders of WEE1 kinase” (DANA-FARBER CANCER INSTITUTE, INC., priority 2018, dated 2025).

The subject of the experiment is MOLT4 proteome. The experiment can be described thus: Multiplexed quantitative mass spectrometry-based proteomics in MOLT4 cells. Format: cell-based, human. Conditions: 100 nM. Here is the method:
MOLT4 cells were treated with DMSO or 100 nM of compound 13 for 2 or 4 hours in biological triplicates and lenalidomide in biological duplicates for 4 hours and cells were harvested by centrifugation. Lysis buffer (8 M Urea, 50 mM NaCl, 50 mM 4-(2hydroxyethyl)-1-piperazineethanesulfonic acid (EPPS) pH 8.5, Protease and Phosphatase inhibitors from Roche) was added to the cell pellets and homogenized by 20 passes through a 21 gauge (1.25 in. long) needle to achieve a cell lysate with a protein concentration between 1-4 mg mL^−1. A micro-BCA assay (Pierce™) was used to determine the final protein concentration of protein in the cell lysate. 200 μg of protein for each sample were reduced and alkylated as previously described in Donovan et al., Elife 7:e38430 (2018).
Proteins were precipitated using methanol/chloroform. In brief, four volumes of methanol were added to the cell lysate, followed by one volume of chloroform, and finally three volumes of water. The mixture was vortexed and centrifuged to separate the chloroform phase from the aqueous phase. The precipitated protein was washed with three volumes of methanol, centrifuged and the resulting washed precipitated protein was allowed to air dry. Precipitated protein was resuspended in 4 M Urea, 50 mM HEPES pH 7.4, followed by dilution to 1 M urea with the addition of 200 mM EPPS, pH 8. Proteins were first digested with LysC (1:50; enzyme: protein) for 12 hours at room temperature. The LysC digestion was diluted down to 0.5 M Urea with 200 mM EPPS pH 8 and then digested with trypsin (1:50; enzyme:protein) for 6 hours at 37° C. Tandem mass tag (TMT) reagents (Thermo Fisher Scientific) were dissolved in anhydrous acetonitrile (ACN) according to manufacturer instructions. […] The sample channels were combined at a 1:1:1:1:1:1:1:1:1:1:1 ratio, desalted using C18 solid phase extraction cartridges (Waters®) and analyzed by LC-MS for channel ratio comparison. Samples were then combined using the adjusted volumes determined in the channel ratio analysis and dried down in a speed vacuum. […]

For `C=CCn1c(=O)c2cnc(Nc3ccc(N4CCN(CCCNc5cccc6c5C(=O)N(C5CCC(=O)NC5=O)C6=O)CC4)cc3)nc2n1-c1cccc(C(C)(C)O)n1` (stereo not drawn) [Compound 13, 4-((3-(4-(4-((2-allyl-1-(6-(2-hydroxypropan-2-yl)pyridin-2-yl)-3-oxo-2,3-dihydro-1H-pyrazolo[3,4-d]pyrimidin-6-yl)amino)phenyl)piperazin-1-yl)propyl)amino)-2-(2,6-dioxopiperidin-3-yl)isoindoline-1,3-dione], the “ZFP91 degradation by proteomics” value is reported as “low levels of ZFP91 degradation”. Where the note is “2 hours”, the “PLK1 downregulation by proteomics” value was “No downregulation of PLK1” and the “Wee1 abundance Log2FC” value is listed as −1.97.
